In PubChem BioAssay (NCI):
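Compound exposure: 48 hours, 5 concentrations, 96-well plates. The concentration for 50% growth inhibition is given as GI50. TGI is the concentration that stops growth completely.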

How the values were obtained:
Assay in all cases: NCI-60 cell line screen, 48 h
NCI-H226 lung = test system: NCI-H226 lung
NCI-H23 lung = test system: NCI-H23 lung
NCI-H460 lung = test system: NCI-H460 lung
NCI-H522 lung = test system: NCI-H522 lung
NCI/ADR-RES ovarian = test system: NCI/ADR-RES ovarian
OVCAR-3 ovarian = test system: OVCAR-3 ovarian
OVCAR-4 ovarian = test system: OVCAR-4 ovarian
OVCAR-5 ovarian = test system: OVCAR-5 ovarian
OVCAR-8 ovarian = test system: OVCAR-8 ovarian
PC-3 prostate = test system: PC-3 prostate
RPMI-8226 leukemia = test system: RPMI-8226 leukemia
RXF 393 renal = test system: RXF 393 renal
SF-268 CNS = test system: SF-268 CNS
SF-295 CNS = test system: SF-295 CNS
SF-539 CNS = test system: SF-539 CNS
SK-MEL-2 melanoma = test system: SK-MEL-2 melanoma
SK-MEL-28 melanoma = test system: SK-MEL-28 melanoma
SK-MEL-5 melanoma = test system: SK-MEL-5 melanoma
SK-OV-3 ovarian = test system: SK-OV-3 ovarian
SN12C renal = test system: SN12C renal
SNB-19 CNS = test system: SNB-19 CNS
SNB-75 CNS = test system: SNB-75 CNS
SR leukemia = test system: SR leukemia
SW-620 colon = test system: SW-620 colon
T-47D breast = test system: T-47D breast
TK-10 renal = test system: TK-10 renal
U251 CNS = test system: U251 CNS
UACC-257 melanoma = test system: UACC-257 melanoma
UACC-62 melanoma = test system: UACC-62 melanoma
UO-31 renal = test system: UO-31 renal

Compound `CC1(c2ccccc2)NC(=O)N(CC(=O)Nc2ccc(C(=O)/C=C/c3ccccc3)cc2)C1=O` (centres undefined) has a TGI (NCI-H226 lung) of 78.1 µM, a GI50 (NCI-H23 lung) of 13.9 µM and a TGI (NCI-H23 lung) of 28.9 µM. For the same compound, the GI50 (NCI-H460 lung) was 15.5 µM, the TGI (NCI-H460 lung) was 41 µM and the GI50 (NCI-H522 lung) was 11.1 µM. The TGI (NCI-H522 lung) was 27.4 µM, the GI50 (NCI/ADR-RES ovarian) was 21.8 µM and the TGI (NCI/ADR-RES ovarian) was 82.3 µM. It also gave a GI50 (OVCAR-3 ovarian) of 11.8 µM, a TGI (OVCAR-3 ovarian) of 26.8 µM and a GI50 (OVCAR-4 ovarian) of 13.3 µM. It also gave a TGI (OVCAR-4 ovarian) of 96.3 µM, a GI50 (OVCAR-5 ovarian) of 16.5 µM and a TGI (OVCAR-5 ovarian) of 36.6 µM. The GI50 (OVCAR-8 ovarian) was 16.8 µM, the TGI (OVCAR-8 ovarian) was 64.3 µM and the GI50 (PC-3 prostate) was 7.74 µM. It also gave a TGI (PC-3 prostate) of 51.9 µM, a GI50 (RPMI-8226 leukemia) of 2270 nM and a TGI (RPMI-8226 leukemia) of 6.85 µM. For the same compound, the GI50 (RXF 393 renal) was 5.81 µM, the TGI (RXF 393 renal) was 21.6 µM and the GI50 (SF-268 CNS) was 12.4 µM. The TGI (SF-268 CNS) was 48.6 µM, the GI50 (SF-295 CNS) was 11.9 µM and the TGI (SF-295 CNS) was 26.3 µM. The GI50 (SF-539 CNS) was 12.9 µM, the TGI (SF-539 CNS) was 25.9 µM and the GI50 (SK-MEL-2 melanoma) was 12.8 µM. For the same compound, the TGI (SK-MEL-2 melanoma) was 33.9 µM, the GI50 (SK-MEL-28 melanoma) was 14.3 µM and the TGI (SK-MEL-28 melanoma) was 29.1 µM. The GI50 (SK-MEL-5 melanoma) was 7.59 µM, the TGI (SK-MEL-5 melanoma) was 20.4 µM and the GI50 (SK-OV-3 ovarian) was 17.9 µM. It also gave a TGI (SK-OV-3 ovarian) of 52.2 µM, a GI50 (SN12C renal) of 11.5 µM and a TGI (SN12C renal) of 35 µM. For the same compound, the GI50 (SNB-19 CNS) was 14 µM, the TGI (SNB-19 CNS) was 35.6 µM and the GI50 (SNB-75 CNS) was 3000 nM. For the same compound, the TGI (SNB-75 CNS) was 41.7 µM, the GI50 (SR leukemia) was 3.1 µM and the TGI (SR leukemia) was greater than 100 µM. The GI50 (SW-620 colon) was 15.1 µM, the TGI (SW-620 colon) was 34.9 µM and the GI50 (T-47D breast) was 3.17 µM. It also gave a TGI (T-47D breast) of 29.2 µM, a GI50 (TK-10 renal) of 17.8 µM and a TGI (TK-10 renal) of 68.2 µM. For the same compound, the GI50 (U251 CNS) was 6.17 µM, the TGI (U251 CNS) was 21.3 µM and the GI50 (UACC-257 melanoma) was 13.1 µM. It also gave a TGI (UACC-257 melanoma) of 27.4 µM, a GI50 (UACC-62 melanoma) of 6.52 µM and a TGI (UACC-62 melanoma) of 23 µM. The GI50 (UO-31 renal) was 10.3 µM and the TGI (UO-31 renal) was 23.9 µM.
